Patent publication US20070049564A1 (Wyeth, priority 2005, published 2007)
In brackets after ≈: the same amount, converted by molar mass. Where two headings read alike, the source gives them in different places.

Tests used:
P. aeruginosa GC 2214 = assay: MIC, broth microdilution; conditions: Pseudomonas aeruginosa
E. coli GC 2232 = assay: MIC, broth microdilution; conditions: Escherichia coli
Staph. = assay: Range of MIC for Staph. strains, including MRSA; conditions: Staphylococcus aureus
E. coli GC 2236 = assay: MIC, broth microdilution; conditions: Escherichia coli
E. coli GC 2233 = assay: MIC, broth microdilution; conditions: Escherichia coli
S. aureus GC 6466 = assay: MIC, broth microdilution; conditions: Staphylococcus aureus
E. coli GC 2203 = assay: MIC, broth microdilution; conditions: Escherichia coli
E. faecium GC 4556 = assay: MIC, broth microdilution; conditions: Enterococcus faecium
S. aureus GC 2216 = assay: MIC, broth microdilution; conditions: Staphylococcus aureus
S. aureus GC 6335 = assay: MIC, broth microdilution; conditions: Staphylococcus aureus
S. aureus GC 6469 = assay: MIC, broth microdilution; conditions: Staphylococcus aureus
E. coli GC 2234 = assay: MIC, broth microdilution; conditions: Escherichia coli
S. pyogenes GC 4563 = assay: MIC, broth microdilution; conditions: Streptococcus pyogenes
E. coli GC 3226 = assay: MIC, broth microdilution; conditions: Escherichia coli
E. coli = assay: Range of MIC for E. coli strains; conditions: Escherichia coli
E. faecalis GC 2265 = assay: MIC, broth microdilution; conditions: Enterococcus faecalis
E. faecium GC 2243 = assay: MIC, broth microdilution; conditions: Enterococcus faecium
E. coli GC 2271 = assay: MIC, broth microdilution; conditions: Escherichia coli
E. coli GC 2270 = assay: MIC, broth microdilution; conditions: Escherichia coli
E. coli GC 2231 = assay: MIC, broth microdilution; conditions: Escherichia coli

MIC (P. aeruginosa GC 2214; GC2214, read-out: MINIMAL INHIBITORY CONCENTRATION MIC, Human Serum): > 64 µg/mL
MIC (P. aeruginosa GC 2214; GC2214, read-out: MINIMAL INHIBITORY CONCENTRATION MIC, Mouse Serum): 64 µg/mL (≈ 80.8 µM)
MIC (P. aeruginosa GC 2214; GC2214, read-out: MINIMAL INHIBITORY CONCENTRATION MIC, Water): > 64 µg/mL
MIC (E. coli GC 2232; GC2232, read-out: MINIMAL INHIBITORY CONCENTRATION MIC, Human Serum): 32 µg/mL (≈ 40.4 µM)
MIC (E. coli GC 2232; GC2232, read-out: MINIMAL INHIBITORY CONCENTRATION MIC, Mouse Serum): 2 µg/mL (≈ 2.53 µM)
MIC (E. coli GC 2232; GC2232, read-out: MINIMAL INHIBITORY CONCENTRATION MIC, Water): > 64 µg/mL
MIC (Staph.; MRSA, read-out: Range of MIC, Staph (Mouse Serum)): 0.25 to 2 µg/mL (≈ 0.316 to 2.53 µM)
MIC (Staph.; MRSA, read-out: Range of MIC, Staph (Water)): 1 to 4 µg/mL (≈ 1.26 to 5.05 µM)
MIC (Staph.; read-out: Minimum inhibitory concentration (MIC), Staph (Human Serum)): 0.25 to 2 µg/mL (≈ 0.316 to 2.53 µM)
MIC (Staph.; read-out: Minimum inhibitory concentration (MIC), Staph (Water)): 1 to 4 µg/mL (≈ 1.26 to 5.05 µM)
MIC (E. coli GC 2236; GC2236, read-out: MINIMAL INHIBITORY CONCENTRATION MIC, Human Serum): 32 µg/mL (≈ 40.4 µM)
MIC (E. coli GC 2236; GC2236, read-out: MINIMAL INHIBITORY CONCENTRATION MIC, Mouse Serum): 2 µg/mL (≈ 2.53 µM)
MIC (E. coli GC 2236; GC2236, read-out: MINIMAL INHIBITORY CONCENTRATION MIC, Water): > 64 µg/mL
MIC (E. coli GC 2233; GC2233, read-out: MINIMAL INHIBITORY CONCENTRATION MIC, Human Serum): 32 µg/mL (≈ 40.4 µM)
MIC (E. coli GC 2233; GC2233, read-out: MINIMAL INHIBITORY CONCENTRATION MIC, Mouse Serum): 2 µg/mL (≈ 2.53 µM)
MIC (E. coli GC 2233; GC2233, read-out: MINIMAL INHIBITORY CONCENTRATION MIC, Water): > 64 µg/mL
MIC (S. aureus GC 6466; GC6466, read-out: MINIMAL INHIBITORY CONCENTRATION MIC, Human Serum): 0.25 µg/mL (≈ 0.316 µM)
MIC (S. aureus GC 6466; GC6466, read-out: MINIMAL INHIBITORY CONCENTRATION MIC, Mouse Serum): 0.25 µg/mL (≈ 0.316 µM)
MIC (S. aureus GC 6466; GC6466, read-out: MINIMAL INHIBITORY CONCENTRATION MIC, Water): 1 µg/mL (≈ 1.26 µM)
MIC (E. coli GC 2203; GC2203, read-out: MINIMAL INHIBITORY CONCENTRATION MIC, Human Serum): 32 µg/mL (≈ 40.4 µM)
MIC (E. coli GC 2203; GC2203, read-out: MINIMAL INHIBITORY CONCENTRATION MIC, Mouse Serum): 2 µg/mL (≈ 2.53 µM)
MIC (E. coli GC 2203; GC2203, read-out: MINIMAL INHIBITORY CONCENTRATION MIC, Water): > 64 µg/mL
MIC (E. faecium GC 4556; GC4556, read-out: MINIMAL INHIBITORY CONCENTRATION MIC, Human Serum): 8 µg/mL (≈ 10.1 µM)
MIC (E. faecium GC 4556; GC4556, read-out: MINIMAL INHIBITORY CONCENTRATION MIC, Mouse Serum): 2 µg/mL (≈ 2.53 µM)
MIC (E. faecium GC 4556; GC4556, read-out: MINIMAL INHIBITORY CONCENTRATION MIC, Water): 8 µg/mL (≈ 10.1 µM)
MIC (S. aureus GC 2216; GC2216, read-out: MINIMAL INHIBITORY CONCENTRATION MIC, Human Serum): 0.5 µg/mL (≈ 0.631 µM)
MIC (S. aureus GC 2216; GC2216, read-out: MINIMAL INHIBITORY CONCENTRATION MIC, Mouse Serum): 0.5 µg/mL (≈ 0.631 µM)
MIC (S. aureus GC 2216; GC2216, read-out: MINIMAL INHIBITORY CONCENTRATION MIC, Water): 1 µg/mL (≈ 1.26 µM)
MIC (S. aureus GC 6335; GC6335, read-out: MINIMAL INHIBITORY CONCENTRATION MIC, Human Serum): 0.5 µg/mL (≈ 0.631 µM)
MIC (S. aureus GC 6335; GC6335, read-out: MINIMAL INHIBITORY CONCENTRATION MIC, Mouse Serum): 0.5 µg/mL (≈ 0.631 µM)
MIC (S. aureus GC 6335; GC6335, read-out: MINIMAL INHIBITORY CONCENTRATION MIC, Water): 1 µg/mL (≈ 1.26 µM)
MIC (S. aureus GC 6469; GC6469, read-out: MINIMAL INHIBITORY CONCENTRATION MIC, Human Serum): 1 µg/mL (≈ 1.26 µM)
MIC (S. aureus GC 6469; GC6469, read-out: MINIMAL INHIBITORY CONCENTRATION MIC, Mouse Serum): 1 µg/mL (≈ 1.26 µM)
MIC (S. aureus GC 6469; GC6469, read-out: MINIMAL INHIBITORY CONCENTRATION MIC, Water): 2 µg/mL (≈ 2.53 µM)
MIC (E. coli GC 2234; GC2234, read-out: MINIMAL INHIBITORY CONCENTRATION MIC, Human Serum): 32 µg/mL (≈ 40.4 µM)
MIC (E. coli GC 2234; GC2234, read-out: MINIMAL INHIBITORY CONCENTRATION MIC, Mouse Serum): 1 µg/mL (≈ 1.26 µM)
MIC (E. coli GC 2234; GC2234, read-out: MINIMAL INHIBITORY CONCENTRATION MIC, Water): > 64 µg/mL
MIC (S. pyogenes GC 4563; GC4563, read-out: MINIMAL INHIBITORY CONCENTRATION MIC, Human Serum): 2 µg/mL (≈ 2.53 µM)
MIC (S. pyogenes GC 4563; GC4563, read-out: MINIMAL INHIBITORY CONCENTRATION MIC, Mouse Serum): 0.5 µg/mL (≈ 0.631 µM)
MIC (S. pyogenes GC 4563; GC4563, read-out: MINIMAL INHIBITORY CONCENTRATION MIC, Water): 2 µg/mL (≈ 2.53 µM)
MIC (E. coli GC 3226; GC3226, read-out: MINIMAL INHIBITORY CONCENTRATION MIC, Human Serum): 64 µg/mL (≈ 80.8 µM)
MIC (E. coli GC 3226; GC3226, read-out: MINIMAL INHIBITORY CONCENTRATION MIC, Mouse Serum): 2 µg/mL (≈ 2.53 µM)
MIC (E. coli GC 3226; GC3226, read-out: MINIMAL INHIBITORY CONCENTRATION MIC, Water): > 64 µg/mL
MIC (E. coli; 20 h, read-out: Range of MIC, E. coli (Mouse Serum)): 1 to 2 µg/mL (≈ 1.26 to 2.53 µM)
MIC (E. coli; read-out: Minimum inhibitory concentration (MIC), E. coli (Human Serum)): 32 to 64 µg/mL (≈ 40.4 to 80.8 µM)
MIC (E. coli; read-out: Minimum inhibitory concentration (MIC), E. coli (water)): > 64 µg/mL
MIC (E. coli; read-out: Range of MIC, E. coli (Water)): > 64 µg/mL
MIC (E. faecalis GC 2265; GC2265, read-out: MINIMAL INHIBITORY CONCENTRATION MIC, Human Serum): 4 µg/mL (≈ 5.05 µM)
MIC (E. faecalis GC 2265; GC2265, read-out: MINIMAL INHIBITORY CONCENTRATION MIC, Mouse Serum): 1 µg/mL (≈ 1.26 µM)
MIC (E. faecalis GC 2265; GC2265, read-out: MINIMAL INHIBITORY CONCENTRATION MIC, Water): 8 µg/mL (≈ 10.1 µM)
MIC (E. faecium GC 2243; GC2243, read-out: MINIMAL INHIBITORY CONCENTRATION MIC, Human Serum): 4 µg/mL (≈ 5.05 µM)
MIC (E. faecium GC 2243; GC2243, read-out: MINIMAL INHIBITORY CONCENTRATION MIC, Mouse Serum): 1 µg/mL (≈ 1.26 µM)
MIC (E. faecium GC 2243; GC2243, read-out: MINIMAL INHIBITORY CONCENTRATION MIC, Water): 4 µg/mL (≈ 5.05 µM)
MIC (E. coli GC 2271; GC2271, read-out: MINIMAL INHIBITORY CONCENTRATION MIC, Human Serum): 32 µg/mL (≈ 40.4 µM)
MIC (E. coli GC 2271; GC2271, read-out: MINIMAL INHIBITORY CONCENTRATION MIC, Mouse Serum): 1 µg/mL (≈ 1.26 µM)
MIC (E. coli GC 2271; GC2271, read-out: MINIMAL INHIBITORY CONCENTRATION MIC, Water): > 64 µg/mL
MIC (E. coli GC 2270; GC2270, read-out: MINIMAL INHIBITORY CONCENTRATION MIC, Human Serum): 32 µg/mL (≈ 40.4 µM)
MIC (E. coli GC 2270; GC2270, read-out: MINIMAL INHIBITORY CONCENTRATION MIC, Mouse Serum): 1 µg/mL (≈ 1.26 µM)
MIC (E. coli GC 2270; GC2270, read-out: MINIMAL INHIBITORY CONCENTRATION MIC, Water): > 64 µg/mL
MIC (E. coli GC 2231; GC2231, read-out: MINIMAL INHIBITORY CONCENTRATION MIC, Human Serum): 32 µg/mL (≈ 40.4 µM)
MIC (E. coli GC 2231; GC2231, read-out: MINIMAL INHIBITORY CONCENTRATION MIC, Mouse Serum): 2 µg/mL (≈ 2.53 µM)
MIC (E. coli GC 2231; GC2231, read-out: MINIMAL INHIBITORY CONCENTRATION MIC, Water): > 64 µg/mL
SMILES: Cc1cc(C)cc(C(=O)OCOC(=O)N(CC(=O)Nc2cc(N(C)C)c3c(c2O)C(=O)C2=C(O)[C@]4(O)C(=O)C(C(N)=O)=C(O)[C@@H](N(C)C)[C@@H]4C[C@@H]2C3)C(C)(C)C)c1 [Example 51]
